Data taken from US11987588B2, “Modulators of the beta-3 adrenergic receptor useful for the treatment or prevention of heart failure and disorders related thereto” (Arena Pharmaceuticals, Inc., priority 2017, dated 2024).

target: Beta-3 Adrenergic Receptor (Homo sapiens (Human), UniProt P13945); assay: Homogeneous Time-Resolved Fluorescence (HTRF) cAMP antagonist assay, IC50 determination; type: cell-based; conditions: CHO-K1 cells stably expressing recombinant receptor, isoproterenol at EC90
Outline: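 CHO-K1 cells stably expressing the recombinant receptor were preincubated with compound (10-point, 5-fold dilutions; top final typically 10 or 100 μM) in PBS with 1 mM IBMX, then stimulated with isoproterenol at its EC90 for 1 h at room temperature. cAMP was read by HTRF against an on-plate standard curve.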

Sequence of Beta-3 Adrenergic Receptor (P13945 whole entry, species assumed): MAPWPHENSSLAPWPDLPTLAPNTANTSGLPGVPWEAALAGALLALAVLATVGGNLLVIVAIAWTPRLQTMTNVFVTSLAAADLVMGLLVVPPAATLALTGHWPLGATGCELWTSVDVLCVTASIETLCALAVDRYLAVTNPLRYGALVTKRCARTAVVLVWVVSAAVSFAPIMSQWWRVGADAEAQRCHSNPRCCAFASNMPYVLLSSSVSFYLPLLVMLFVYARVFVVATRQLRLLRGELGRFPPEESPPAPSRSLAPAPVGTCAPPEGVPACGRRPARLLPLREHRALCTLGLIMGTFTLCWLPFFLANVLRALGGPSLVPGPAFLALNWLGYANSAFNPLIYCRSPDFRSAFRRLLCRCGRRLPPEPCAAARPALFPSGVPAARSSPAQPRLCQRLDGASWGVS

IC50	SMILES
42.4 nM	CNS(=O)(=O)c1cccc(OC[C@@H](O)CNC2COC3(CCN(S(=O)(=O)c4cccc(-c5ccc(CNCC(F)F)cc5)c4)CC3)C2)c1 (stereo partly drawn) [Compound 339, 3-((2S)-3-(8-(4′-((2,2-difluoroethylamino)methyl)biphenyl-3-ylsulfonyl)-1-oxa-8-azaspiro[4.5]decan-3-ylamino)-2-hydroxypropoxy)-N-methylbenzenesulfonamide]
36.2 nM	CNS(=O)(=O)c1cccc(OC[C@@H](O)CNC2COC3(CCN(S(=O)(=O)c4cccc(Oc5ccccc5)c4)CC3)C2)c1 (stereo partly drawn) [Compound 124, 3-((2S)-2-hydroxy-3-(8-(3-phenoxyphenylsulfonyl)-1-oxa-8-azaspiro[4.5]decan-3-ylamino)propoxy)-N-methylbenzenesulfonamide]
5.38 nM	CNS(=O)(=O)c1cccc(OC[C@@H](O)CNC2COC3(CCN(S(=O)(=O)c4ccc(Cl)c(C)c4)CC3)C2)c1 (stereo partly drawn) [Compound 151, 3-((2S)-3-(8-(4-chloro-3-methylphenylsulfonyl)-1-oxa-8-azaspiro[4.5]decan-3-ylamino)-2-hydroxypropoxy)-N-methylbenzenesulfonamide]
27.2 nM	CCOc1ccc(-c2ccc(CNC(C)C)cc2)cc1S(=O)(=O)N1CCC2(CC1)C[C@@H](NC[C@H](O)COc1cccc(S(=O)(=O)NC)c1)CO2 [Compound 439, 3-((S)-3-((R)-8-(4-ethoxy-4′-((isopropylamino)methyl)biphenyl-3-ylsulfonyl)-1-oxa-8-azaspiro[4.5]decan-3-ylamino)-2-hydroxypropoxy)-N-methylbenzenesulfonamide]
65.6 nM	CNS(=O)(=O)c1cccc(OC[C@@H](O)CN[C@H]2COC3(CCN(c4nccc(-c5ccccc5)n4)CC3)C2)c1 [Compound 572, 3-((S)-2-hydroxy-3-((R)-8-(4-phenylpyrimidin-2-yl)-1-oxa-8-azaspiro[4.5]decan-3-ylamino)propoxy)-N-methylbenzenesulfonamide]
47.5 nM	CNS(=O)(=O)c1cccc(OC[C@@H](O)CNC2COC3(CCN(S(=O)(=O)c4c(C)nn(-c5ccccc5)c4C)CC3)C2)c1 (stereo partly drawn) [Compound 261, 3-((2S)-3-(8-(3,5-dimethyl-1-phenyl-1H-pyrazol-4-ylsulfonyl)-1-oxa-8-azaspiro[4.5]decan-3-ylamino)-2-hydroxypropoxy)-N-methylbenzenesulfonamide]
15.5 nM	CCn1cc(-c2cccc(S(=O)(=O)N3CCC4(CC3)C[C@H](NC[C@H](O)COc3cccc(S(=O)(=O)NC)c3)CO4)c2)cn1 [Compound 282, 3-((S)-3-((S)-8-(3-(1-ethyl-1H-pyrazol-4-yl)phenylsulfonyl)-1-oxa-8-azaspiro[4.5]decan-3-ylamino)-2-hydroxypropoxy)-N-methylbenzenesulfonamide]
26.4 nM	CNS(=O)(=O)c1cccc(OC[C@@H](O)CNC2COC3(CCN(S(=O)(=O)c4ccc(C#N)cc4Cl)CC3)C2)c1 (stereo partly drawn) [Compound 157, 3-((2S)-3-(8-(2-chloro-4-cyanophenylsulfonyl)-1-oxa-8-azaspiro[4.5]decan-3-ylamino)-2-hydroxypropoxy)-N-methylbenzenesulfonamide]
26.2 nM	CNS(=O)(=O)c1cccc(OC[C@@H](O)CNC2COC3(CCN(S(=O)(=O)c4cnn(-c5ccccc5)c4)CC3)C2)c1 (stereo partly drawn) [Compound 243, 3-((2S)-2-hydroxy-3-(8-(1-phenyl-1H-pyrazol-4-ylsulfonyl)-1-oxa-8-azaspiro[4.5]decan-3-ylamino)propoxy)-N-methylbenzenesulfonamide]
25.2 nM	CNS(=O)(=O)c1cccc(OC[C@@H](O)CN[C@H]2COC3(CCN(S(=O)(=O)c4cnc5c(c4)N(C)CCCO5)CC3)C2)c1 [Compound 487, 3-((S)-2-hydroxy-3-((R)-8-(1-methyl-1,2,3,4-tetrahydropyrido[2,3-b][1,4]oxazepin-8-ylsulfonyl)-1-oxa-8-azaspiro[4.5]decan-3-ylamino)propoxy)-N-methylbenzenesulfonamide]
16.2 nM	CNS(=O)(=O)c1cccc(OC[C@@H](O)CNC2COC3(CCN(S(=O)(=O)c4cccc(F)c4)CC3)C2)c1 (stereo partly drawn) [Compound 28, 3-((2S)-3-(8-(3-fluorophenylsulfonyl)-1-oxa-8-azaspiro[4.5]decan-3-ylamino)-2-hydroxypropoxy)-N-methylbenzenesulfonamide]
453 nM	CNS(=O)(=O)c1cccc(OC[C@@H](O)CN[C@H]2COC3(CCN(S(=O)(=O)c4cc5c(nc4O)OCCN5C)CC3)C2)c1 [Compound 454, 3-((S)-2-hydroxy-3-((R)-8-(6-hydroxy-1-methyl-2,3-dihydro-1H-pyrido[2,3-b][1,4]oxazin-7-ylsulfonyl)-1-oxa-8-azaspiro[4.5]decan-3-ylamino)propoxy)-N-methylbenzenesulfonamide]
21.8 nM	CNS(=O)(=O)c1cccc(OC[C@@H](O)CNC2COC3(CCN(S(=O)(=O)c4cccc(-c5ccc(C(=N)N)cc5)c4)CC3)C2)c1 (stereo partly drawn) [Compound 383, 3′-(3-((S)-2-hydroxy-3-(3-(N-methylsulfamoyl)phenoxy)propylamino)-1-oxa-8-azaspiro[4.5]decan-8-ylsulfonyl)biphenyl-4-carboximidamide]
35.2 nM	CNS(=O)(=O)c1cccc(OC[C@@H](O)CNC2COC3(CCN(S(=O)(=O)c4cccc(-c5ccc(CNC(=O)C(N)=O)cc5)c4)CC3)C2)c1 (stereo partly drawn) [Compound 354, N^1-((3′-(3-((S)-2-hydroxy-3-(3-(N-methylsulfamoyl)phenoxy)propylamino)-1-oxa-8-azaspiro[4.5]decan-8-ylsulfonyl)biphenyl-4-yl)methyl)oxalamide]
27 nM	Cc1n[nH]c2ncc(S(=O)(=O)N3CCC4(CC3)C[C@@H](NC[C@H](O)COc3cccc(S(N)(=O)=O)c3)CO4)cc12 [Compound 564, 3-((S)-2-hydroxy-3-((R)-8-(3-methyl-1H-pyrazolo[3,4-b]pyridin-5-ylsulfonyl)-1-oxa-8-azaspiro[4.5]decan-3-ylamino)propoxy)benzenesulfonamide]
2150 nM	CN(C)CCNS(=O)(=O)c1cccc(OC[C@@H](O)CNC2COC3(CCN(S(=O)(=O)c4ccc5ccccc5c4)CC3)C2)c1 (stereo partly drawn) [Compound 167, N-(2-(dimethylamino)ethyl)-3-((2S)-2-hydroxy-3-(8-(naphthalen-2-ylsulfonyl)-1-oxa-8-azaspiro[4.5]decan-3-ylamino)propoxy)benzenesulfonamide]
115 nM	CNS(=O)(=O)c1cccc(OC[C@@H](O)CN[C@H]2COC3(CCN(S(=O)(=O)c4cc5c(nc4N(C)C)OCCN5C)CC3)C2)c1 [Compound 453, 3-((S)-3-((R)-8-(6-(dimethylamino)-1-methyl-2,3-dihydro-1H-pyrido[2,3-b][1,4]oxazin-7-ylsulfonyl)-1-oxa-8-azaspiro[4.5]decan-3-ylamino)-2-hydroxypropoxy)-N-methylbenzenesulfonamide]
140 nM	Cn1cc(S(=O)(=O)N2CCC3(CC2)C[C@@H](NC[C@H](O)COc2cccc(S(N)(=O)=O)c2)CO3)c(=O)c2ccccc21 [Compound 549, 3-((S)-2-hydroxy-3-((R)-8-(1-methyl-4-oxo-1,4-dihydroquinolin-3-ylsulfonyl)-1-oxa-8-azaspiro[4.5]decan-3-ylamino)propoxy)benzenesulfonamide]
35.1 nM	CNS(=O)(=O)c1cccc(OC[C@@H](O)CNC2COC3(CCN(S(=O)(=O)c4cc(C#N)ccc4C)CC3)C2)c1 (stereo partly drawn) [Compound 217, 3-((2S)-3-(8-(5-cyano-2-methylphenylsulfonyl)-1-oxa-8-azaspiro[4.5]decan-3-ylamino)-2-hydroxypropoxy)-N-methylbenzenesulfonamide]
84.9 nM	O=C1CCCN1CCNS(=O)(=O)c1cccc(OC[C@@H](O)CNC2COC3(CCN(S(=O)(=O)c4ccc5ccccc5c4)CC3)C2)c1 (stereo partly drawn) [Compound 164, 3-((2S)-2-hydroxy-3-(8-(naphthalen-2-ylsulfonyl)-1-oxa-8-azaspiro[4.5]decan-3-ylamino)propoxy)-N-(2-(2-oxopyrrolidin-1-yl)ethyl)benzenesulfonamide]
6.82 nM	CNS(=O)(=O)c1cccc(OC[C@@H](O)CNC2COC3(CCN(S(=O)(=O)c4ccc5c(c4)CCCO5)CC3)C2)c1 (stereo partly drawn) [Compound 41, 3-((2S)-3-(8-(chroman-6-ylsulfonyl)-1-oxa-8-azaspiro[4.5]decan-3-ylamino)-2-hydroxypropoxy)-N-methylbenzenesulfonamide]
11.8 nM	CNS(=O)(=O)c1cccc(OC[C@@H](O)CN[C@@H]2COC3(CCN(S(=O)(=O)c4ccc5c(c4)N(C)CCO5)CC3)C2)c1 [Compound 299, 3-((S)-2-hydroxy-3-((S)-8-(4-methyl-3,4-dihydro-2H-benzo[b][1,4]oxazin-6-ylsulfonyl)-1-oxa-8-azaspiro[4.5]decan-3-ylamino)propoxy)-N-methylbenzenesulfonamide]
73 nM	CNS(=O)(=O)c1cccc(OC[C@@H](O)CN[C@H]2COC3(CCN(S(=O)(=O)c4ccc5[nH]c(=O)[nH]c5c4)CC3)C2)c1 [Compound 499, 3-((S)-2-hydroxy-3-((R)-8-(2-oxo-2,3-dihydro-1H-benzo[d]imidazol-5-ylsulfonyl)-1-oxa-8-azaspiro[4.5]decan-3-ylamino)propoxy)-N-methylbenzenesulfonamide]
11.9 nM	CNS(=O)(=O)c1cccc(OC[C@@H](O)CN[C@H]2COC3(CCN(S(=O)(=O)c4cnc5[nH]ccc5c4)CC3)C2)c1 [Compound 506, 3-((S)-3-((R)-8-(1H-pyrrolo[2,3-b]pyridin-5-ylsulfonyl)-1-oxa-8-azaspiro[4.5]decan-3-ylamino)-2-hydroxypropoxy)-N-methylbenzenesulfonamide]
39.1 nM	CNS(=O)(=O)c1cccc(OC[C@@H](O)CNC2COC3(CCN(S(=O)(=O)c4ccc(-c5ccncc5)cc4)CC3)C2)c1 (stereo partly drawn) [Compound 408, 3-((2S)-2-hydroxy-3-(8-(4-(pyridin-4-yl)phenylsulfonyl)-1-oxa-8-azaspiro[4.5]decan-3-ylamino)propoxy)-N-methylbenzenesulfonamide]
